Measured values: ChEMBL document CHEMBL2321874, “Small-molecular, non-peptide, non-ATP-competitive polo-like kinase 1 (Plk1) inhibitors with a terphenyl skeleton” (Bioorg Med Chem, 2013)
Converted amounts (≈) assume the structure as drawn.

Legend:
[1] = Solubility of the compound; assay type: physicochemical
[2] = molecular target: Serine/threonine-protein kinase PLK1 (Homo sapiens) (UniProt P53350); experiment: Inhibition of human recombinant N-terminal GST-tagged Plk1 at 250 uM
Serine/threonine-protein kinase PLK1 (Homo sapiens), sequence (P53350 whole entry): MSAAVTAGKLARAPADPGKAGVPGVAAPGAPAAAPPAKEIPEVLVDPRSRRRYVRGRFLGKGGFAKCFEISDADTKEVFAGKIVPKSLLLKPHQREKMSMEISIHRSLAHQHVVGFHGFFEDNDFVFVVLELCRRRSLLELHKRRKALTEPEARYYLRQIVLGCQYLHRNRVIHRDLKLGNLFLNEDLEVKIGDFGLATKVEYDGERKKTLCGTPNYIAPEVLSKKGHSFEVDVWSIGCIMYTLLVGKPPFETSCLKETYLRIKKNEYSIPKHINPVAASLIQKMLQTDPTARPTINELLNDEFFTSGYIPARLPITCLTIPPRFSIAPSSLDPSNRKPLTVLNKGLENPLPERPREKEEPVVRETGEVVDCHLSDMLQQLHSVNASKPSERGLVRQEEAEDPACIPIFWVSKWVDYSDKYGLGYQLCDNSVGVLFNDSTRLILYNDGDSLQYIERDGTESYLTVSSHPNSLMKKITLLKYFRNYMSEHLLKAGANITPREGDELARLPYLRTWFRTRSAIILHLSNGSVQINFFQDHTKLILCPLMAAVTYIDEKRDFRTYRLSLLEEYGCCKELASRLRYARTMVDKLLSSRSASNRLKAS

SMILES | solubility [1] [µM] | inhibition [2] [%]
Cc1cc(-c2ccc(C#N)cc2)c(OCCO)c(-c2ccc(C#N)cc2)c1 | 100 (≈ 35.4 µg/mL) | 
CNC(=O)Cc1ccc(-c2cc(C)cc(-c3ccc(CC(=O)NC)cc3)c2OCCO)cc1 |  | 0
